{"source": "paper PMC6790288", "about": "(The journal of pain : official journal of the American Pain …, 2019)", "key": {"[1]": {"tested_on": "pupil diameter", "assay": "Pupillometry", "type": "in vivo, human", "details": "trial A; for Pupil diameter, predose: before first dose of segment"}, "[2]": {"tested_on": "healthy participants", "assay": "Abuse liability visual analog scales", "type": "in vivo, human", "details": "trial A, n = 43, 0–100 mm VAS after seventh dose, M (SD)"}, "[3]": {"tested_on": "cold-induced pain", "assay": "Cold pressor test", "type": "in vivo, human", "details": "trial A"}, "[4]": {"tested_on": "cold-induced pain", "details": "VAS, mean [SD], cited from earlier work"}, "[5]": {"details": "cited from earlier work"}, "[6]": {"details": "achiral analyses of blood; intoxication with the labelled substance; cited from earlier work"}, "[7]": {"details": "tramadol and its metabolites; cited from earlier work"}, "[8]": {"details": "12 participants, 5 days rifampicin, 100 mg oral tramadol; cited from earlier work"}, "[9]": {"tested_on": "healthy participants", "assay": "Drug-related adverse events"}, "[10]": {"tested_on": "healthy participants", "assay": "Respiratory rate", "details": "trial B (with paroxetine), n = 60; MPD (SD)"}}, "data": [{"smiles": "COc1cccc(C2(O)CCCCC2CN(C)C)c1", "note": "(centres unmarked) [Tramadol, tramadol]", "values": [{"measurement": "pupil diameter, mean paired reduction compared with placebo", "setting": "[1]; after dosing, mean (SD)", "result": "−.7 (.6) mm"}, {"measurement": "Pupil diameter, after seventh dose", "setting": "[1]; n = 43, M (SD)", "result": "5.5 (1.1) mm"}, {"measurement": "Pupil diameter, predose", "setting": "[1]; n = 43, M (SD)", "result": "6.1 (.9) mm"}, {"measurement": "Pupil diameter, predose", "setting": "[1]; n = 43, M (SD), listed as tramadol", "result": "6.1 [.9] mm"}, {"measurement": "Drug liking-disliking", "setting": "[2]", "result": "48(15) mm"}, {"measurement": "Strength of drug effect", "setting": "[2]", "result": "32 (29) mm"}, {"measurement": "Take drug again", "setting": "[2]", "result": "47(18) mm"}, {"measurement": "Strength of drug effect", "setting": "[2]; listed as tramadol", "result": "32 [29] mm"}, {"measurement": "average duration of tolerance to pain", "setting": "[3]", "result": 62, "unit": "s"}, {"measurement": "peak mean pain perception to cold after tramadol", "setting": "[4]; after a single 50 mg dose of tramadol", "result": "5.0 [2.3] cm"}, {"measurement": "peak mean pain perception to cold before tramadol", "setting": "[4]; before a single 50 mg dose of tramadol", "result": "6.3 [2.0] cm"}, {"measurement": "lethal dose", "setting": "[5]", "result": "> 5", "unit": "g"}, {"measurement": "median ingested dose in overdose with respiratory depression", "setting": "[5]; in vivo", "result": "2,500 mg"}, {"measurement": "median ingested dose in overdose with no respiratory depression", "setting": "[5]; range = 450−6,000 mg", "result": "1,000 mg"}, {"measurement": "mean blood M1 level in fatal intoxications", "setting": "[6]", "result": "1,900 ng/mL"}, {"measurement": "tramadol dose appearing in the urine", "setting": "[7]", "result": "> 90", "unit": "%"}, {"measurement": "decrease of AUC by rifampicin induction", "setting": "[8]", "result": 59, "unit": "%"}, {"measurement": "Deaths", "setting": "[9]; trial A", "result": "0 (0) n (%)"}, {"measurement": "Severe AEs", "setting": "[9]; trial A", "result": "0 (0) n (%)"}, {"measurement": "participants reporting drug-related AEs", "setting": "[9]; trial A", "result": 49, "unit": "%"}, {"measurement": "Dizziness", "setting": "[9]; trial A, all", "result": "5(12) n (%)"}, {"measurement": "Euphoria", "setting": "[9]; trial A, all", "result": "0 (0) n (%)"}, {"measurement": "Feel abnormal", "setting": "[9]; trial A, all", "result": "1 (2) n (%)"}, {"measurement": "Feel hot", "setting": "[9]; trial A, all", "result": "0 (0) n (%)"}, {"measurement": "Headache", "setting": "[9]; trial A, all", "result": "7(17) n (%)"}, {"measurement": "Nausea", "setting": "[9]; trial A, all", "result": "5(12) n (%)"}, {"measurement": "Presyncope", "setting": "[9]; trial A, all", "result": "0 (0) n (%)"}, {"measurement": "Pruritus", "setting": "[9]; trial A, all", "result": "4(10) n (%)"}, {"measurement": "Somnolence", "setting": "[9]; trial A, all", "result": "2 (5) n (%)"}, {"measurement": "Spasticity", "setting": "[9]; trial A, all", "result": "1 (2) n (%)"}, {"measurement": "Sweating", "setting": "[9]; trial A, all", "result": "0 (0) n (%)"}, {"measurement": "Vomiting", "setting": "[9]; trial A, all", "result": "1 (2) n (%)"}, {"measurement": "Dizziness", "setting": "[9]; trial A, male", "result": "5(12) n (%)"}, {"measurement": "Euphoria", "setting": "[9]; trial A, male", "result": "0 (0) n (%)"}, {"measurement": "Feel abnormal", "setting": "[9]; trial A, male", "result": "1 (2) n (%)"}, {"measurement": "Feel hot", "setting": "[9]; trial A, male", "result": "0 (0) n (%)"}, {"measurement": "Headache", "setting": "[9]; trial A, male", "result": "7(17) n (%)"}, {"measurement": "Nausea", "setting": "[9]; trial A, male", "result": "5(12) n (%)"}, {"measurement": "Presyncope", "setting": "[9]; trial A, male", "result": "0 (0) n (%)"}, {"measurement": "Pruritus", "setting": "[9]; trial A, male", "result": "4(10) n (%)"}, {"measurement": "Somnolence", "setting": "[9]; trial A, male", "result": "2 (5) n (%)"}, {"measurement": "Spasticity", "setting": "[9]; trial A, male", "result": "1 (2) n (%)"}, {"measurement": "Sweating", "setting": "[9]; trial A, male", "result": "0 (0) n (%)"}, {"measurement": "Vomiting", "setting": "[9]; trial A, male", "result": "1 (2) n (%)"}, {"measurement": "All drug-related AEs", "setting": "[9]; trial A, n = 43 (all male)", "result": "20 (49) n (%)"}, {"measurement": "Deaths", "setting": "[9]; trial B", "result": "0 (0) n (%)"}, {"measurement": "Severe AEs", "setting": "[9]; trial B", "result": "0 (0) n (%)"}, {"measurement": "participants reporting drug-related AEs", "setting": "[9]; trial B (with paroxetine)", "result": 50, "unit": "%"}, {"measurement": "All drug-related AEs", "setting": "[9]; trial B (with paroxetine), n = 60", "result": "30 (50) n (%)"}, {"measurement": "Dizziness", "setting": "[9]; trial B, all", "result": "8(13) n (%)"}, {"measurement": "Euphoria", "setting": "[9]; trial B, all", "result": "1 (2) n (%)"}, {"measurement": "Feel abnormal", "setting": "[9]; trial B, all", "result": "2 (3) n (%)"}, {"measurement": "Feel hot", "setting": "[9]; trial B, all", "result": "0 (0) n (%)"}, {"measurement": "Headache", "setting": "[9]; trial B, all", "result": "6(10) n (%)"}, {"measurement": "Nausea", "setting": "[9]; trial B, all", "result": "8(13) n (%)"}, {"measurement": "Presyncope", "setting": "[9]; trial B, all", "result": "1 (2) n (%)"}, {"measurement": "Pruritus", "setting": "[9]; trial B, all", "result": "1 (2) n (%)"}, {"measurement": "Somnolence", "setting": "[9]; trial B, all", "result": "4(7) n (%)"}, {"measurement": "Spasticity", "setting": "[9]; trial B, all", "result": "3 (5) n (%)"}, {"measurement": "Sweating", "setting": "[9]; trial B, all", "result": "1 (2) n (%)"}, {"measurement": "Vomiting", "setting": "[9]; trial B, all", "result": "2 (3) n (%)"}, {"measurement": "Dizziness", "setting": "[9]; trial B, female", "result": "4(22) n (%)"}, {"measurement": "Euphoria", "setting": "[9]; trial B, female", "result": "0 (0) n (%)"}, {"measurement": "Feel abnormal", "setting": "[9]; trial B, female", "result": "0 (0) n (%)"}, {"measurement": "Feel hot", "setting": "[9]; trial B, female", "result": "0 (0) n (%)"}, {"measurement": "Headache", "setting": "[9]; trial B, female", "result": "6 (33) n (%)"}, {"measurement": "Nausea", "setting": "[9]; trial B, female", "result": "2(11) n (%)"}, {"measurement": "Presyncope", "setting": "[9]; trial B, female", "result": "0 (0) n (%)"}, {"measurement": "Pruritus", "setting": "[9]; trial B, female", "result": "1 (6) n (%)"}, {"measurement": "Somnolence", "setting": "[9]; trial B, female", "result": "2(11) n (%)"}, {"measurement": "Spasticity", "setting": "[9]; trial B, female", "result": "0 (0) n (%)"}, {"measurement": "Sweating", "setting": "[9]; trial B, female", "result": "0 (0) n (%)"}, {"measurement": "Vomiting", "setting": "[9]; trial B, female", "result": "0 (0) n (%)"}, {"measurement": "Dizziness", "setting": "[9]; trial B, male", "result": "4(10) n (%)"}, {"measurement": "Euphoria", "setting": "[9]; trial B, male", "result": "1 (2) n (%)"}, {"measurement": "Feel abnormal", "setting": "[9]; trial B, male", "result": "2 (5) n (%)"}, {"measurement": "Feel hot", "setting": "[9]; trial B, male", "result": "0 (0) n (%)"}, {"measurement": "Headache", "setting": "[9]; trial B, male", "result": "0 (0) n (%)"}, {"measurement": "Nausea", "setting": "[9]; trial B, male", "result": "6(14) n (%)"}, {"measurement": "Presyncope", "setting": "[9]; trial B, male", "result": "1 (2) n (%)"}, {"measurement": "Pruritus", "setting": "[9]; trial B, male", "result": "0 (0) n (%)"}, {"measurement": "Somnolence", "setting": "[9]; trial B, male", "result": "2 (5) n (%)"}, {"measurement": "Spasticity", "setting": "[9]; trial B, male", "result": "3 (7) n (%)"}, {"measurement": "Sweating", "setting": "[9]; trial B, male", "result": "1 (2) n (%)"}, {"measurement": "Vomiting", "setting": "[9]; trial B, male", "result": "2 (5) n (%)"}, {"measurement": "headache incidence, tramadol compared with desmetramadol AE profile", "setting": "[9]; trial B, same participants", "result": "−40", "unit": "%"}, {"measurement": "nausea incidence, tramadol compared with desmetramadol AE profile", "setting": "[9]; trial B, same participants", "result": "−50", "unit": "%"}, {"measurement": "presyncope incidence, tramadol compared with desmetramadol AE profile", "setting": "[9]; trial B, same participants", "result": "−83", "unit": "%"}, {"measurement": "pruritus incidence, tramadol compared with desmetramadol AE profile", "setting": "[9]; trial B, same participants", "result": "−75", "unit": "%"}, {"measurement": "somnolence incidence, tramadol compared with desmetramadol AE profile", "setting": "[9]; trial B, same participants", "result": "−60", "unit": "%"}, {"measurement": "vomiting incidence, tramadol compared with desmetramadol AE profile", "setting": "[9]; trial B, same participants", "result": "−78", "unit": "%"}, {"measurement": "Average postdose respiratory rate, mean paired difference versus placebo", "setting": "[10]", "result": "−.34 [.99] min^−1"}]}]}
